# Results published in PMC11137019, “G protein-specific mechanisms in the serotonin 5-HT2A receptor regulate psychosis-related effects and memory deficits” (Nature Communications, 2024).
# Where a name gives a salt, the structure may show the parent alone.
# Molecular target: T1, 5-HT2AR (CHO-5-HT2A cell membranes) (Homo sapiens, UniProt P28223)
# T1 construct: gene HTR2A; membranes from CHO-5-HT2A cell line prepared in the authors' laboratory
# Assay: [3H]ketanserin competition binding, CHO-5-HT2A membranes
# Conditions: […] °C, […] min, orthosteric site
# T1 sequence (P28223 whole entry): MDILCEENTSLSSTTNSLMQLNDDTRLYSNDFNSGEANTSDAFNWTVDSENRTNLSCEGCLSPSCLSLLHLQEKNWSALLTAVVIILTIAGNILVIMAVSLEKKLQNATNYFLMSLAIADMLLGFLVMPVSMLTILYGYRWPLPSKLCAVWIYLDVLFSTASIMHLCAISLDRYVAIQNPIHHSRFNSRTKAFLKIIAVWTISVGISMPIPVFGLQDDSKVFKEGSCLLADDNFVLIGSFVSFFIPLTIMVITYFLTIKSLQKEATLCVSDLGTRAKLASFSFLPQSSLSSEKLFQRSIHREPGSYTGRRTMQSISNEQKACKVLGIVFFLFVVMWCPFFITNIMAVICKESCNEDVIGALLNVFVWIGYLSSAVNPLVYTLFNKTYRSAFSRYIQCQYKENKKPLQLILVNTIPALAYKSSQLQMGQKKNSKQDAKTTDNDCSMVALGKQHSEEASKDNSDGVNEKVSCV
smiles,measurement,value
"NCCc1c[nH]c2ccc(-c3ccc4c(c3)OCCO4)cc12 [OTV1, 2-[5-(2,3-dihydro-1,4-benzodioxin-6-yl)-1H-indol-3-yl]ethan-1-amine Hydrochloride]",pKi,"Ligand binding affinities (pKi) are indicated for Nitro-I, Met-I, OTV1 and OTV2"
